From patent US20260176270A1 (Exelixis, Inc., priority 2022, published 2026) come the findings set out here.

Read-outs that look alike come from different tables or passages of the source. Bounds are passed on as bounds.

As a reminder, the IC50 is the concentration that inhibits the measured activity by half.

Assay [1] addresses T1, PKMYT1 (Homo sapiens, UniProt Q99640).
T1 construct: PKMYT1 (93 kD, full length, N-terminal GST tag from Signal Chem); GST (N); purchased Signal Chem
T1 sequence (Q99640 1-499): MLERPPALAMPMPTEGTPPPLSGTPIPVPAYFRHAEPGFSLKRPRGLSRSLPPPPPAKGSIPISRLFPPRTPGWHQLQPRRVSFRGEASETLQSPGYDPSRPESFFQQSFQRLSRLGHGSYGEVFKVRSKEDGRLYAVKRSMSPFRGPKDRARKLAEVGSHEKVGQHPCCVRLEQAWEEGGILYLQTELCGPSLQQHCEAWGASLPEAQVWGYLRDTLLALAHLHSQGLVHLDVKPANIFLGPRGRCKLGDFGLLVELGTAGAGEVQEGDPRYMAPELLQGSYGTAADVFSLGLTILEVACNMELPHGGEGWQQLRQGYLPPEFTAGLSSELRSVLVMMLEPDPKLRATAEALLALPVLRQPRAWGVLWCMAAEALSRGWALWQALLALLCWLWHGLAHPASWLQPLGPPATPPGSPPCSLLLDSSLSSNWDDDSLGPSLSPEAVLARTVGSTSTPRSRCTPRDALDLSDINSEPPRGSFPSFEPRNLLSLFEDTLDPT
Put plainly: ADP-Glo PKMYT1 ATP-depletion assay. As to conditions: 50 nM PKMYT1, 13.3 nM CDK1, read-out: Biochemical IC50. The gist of the method: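 Full-length N-terminal GST-tagged PKMYT1 (50 nM) with GST-CDK1 (13.3 nM) as substrate and 88 µM ATP, in Hepes buffer with MgCl2, MnCl2, DTT and BSA; DMSO <1%. Incubated 120 min at RT. ADP formed was quantified by ADP-Glo luminescence and used to derive biochemical IC50.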
For orientation: ADP-Glo turns the ADP formed in a reaction into a luminescent signal.

In assay [2] the test system is phosphorylation of CDK1 at Thr14 in HCC1806 cells. In words: Cell lysate AlphaLISA assay measuring inhibition of phosphorylation of CDK1 Thr14. Format: cell-based. As to conditions: read-out: Cellular IC50. The gist of the method:
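HCC1806 cells seeded overnight, then treated 4 h at 37 °C, 5% CO2 with compounds in DMSO; washed and lysed, lysates frozen overnight at −80 °C. CDK1 Thr14 phosphorylation read by AlphaLISA SureFire Ultra; data normalized to DMSO (0% inhibition) and 3 μM reference compound to give IC50.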
In general terms: Bead proximity is the source of the signal in Alpha formats.

Turning to `NC(=O)c1cc2nccnc2c(-c2cccc3sncc23)c1N` [Compound 214], the IC50 in assay [1] was 500 to 1000 nM; in assay [2] (Homo sapiens, HCC1806, 4 h), no less than 5000 nM.
`Cc1c(O)cccc1-c1c(N)c(C(N)=O)nc2cc(C(F)(F)F)ccc12` (atropisomer, axis not shown) [Compound 148]: the IC50 in assay [1] and in assay [2] (4 hours) was no less than 5000 nM throughout.
Regarding `COc1cncc(C2=c3ncccc3=NC(C(N)=O)C2N)c1C` (stereo not drawn) [Compound 186], the IC50 was 50 to 500 nM in assay [1] and 500 to 1000 nM in assay [2] (Homo sapiens, HCC1806, 4 h).
Consider `Cc1c(-c2c(N)c(C(N)=O)cc3nccnc23)ccc(F)c1O` (atropisomer, axis not shown) [Compound 295], for which the results for the IC50 in assay [1] and in assay [2] (4 hours) were less than 50 nM and 50 to 500 nM, respectively.
Consider `Cc1cncc(C2=c3ncccc3=NC(C(N)=O)C2N)c1C` (stereo not drawn) [Compound 211], for which the IC50 was in the range of 500 to 1000 nM in assay [1] and 1000 to 5000 nM in assay [2] (Homo sapiens, HCC1806, 4 h).
The matching figures for `Cc1nc(F)ccc1-c1c(N)c(C(N)=O)nc2cccnc12` [Compound 228]: no less than 5000 nM and no less than 5000 nM.
With `Cc1ccc(O)c(C)c1-c1c(N)c(C#N)cc2nccnc12` (atropisomer, axis not shown) [Compound 302], the IC50 in assay [1] is 1000 to 5000 nM; in assay [2] (4 hours), no less than 5000 nM.
Regarding `Cc1c(O)cccc1-c1c(N)c(C(N)=O)nc2ncccc12` [Compound 237], the IC50 in assay [1] is 50 to 500 nM; in assay [2] (Homo sapiens, HCC1806, 4 h), 1000 to 5000 nM.
`Cc1ccc(O)c(C)c1-c1c(N)c(C#N)cc2nccnc12` (atropisomer, axis not shown) [Compound 301]: the IC50 in assay [1] and in assay [2] (4 hours) was no less than 5000 nM each time.
With `Cc1cnc2c(-c3c(C)ccc(O)c3C)c(N)c(C(N)=O)cc2n1` (atropisomer, axis not shown) [Compound 223], the IC50 in assay [1] and in assay [2] (4 hours) was no less than 5000 nM each time.
Take `Cc1c(O)cccc1-c1c(N)c(C(N)=O)nc2cccc(C(N)=O)c12` [Compound 338]: the IC50 in assay [1] was 50 to 500 nM; in assay [2] (Homo sapiens, HCC1806, 4 h), 1000 to 5000 nM.
Take `NC(=O)c1nc2cccnc2c(-c2c(F)ccc3[nH]ncc23)c1N` [Compound 220]: the IC50 in assay [1] was 50 to 500 nM; in assay [2] (4 hours) it was 1000 to 5000 nM.
With `Cc1n[nH]c2cccc(-c3cc(C(N)=O)cc4nccnc34)c12` [Compound 72, 8-(3-Methyl-1H-indazol-4-yl)quinoxaline-6-carboxamide], the IC50 is no less than 5000 nM in assay [1] and no less than 5000 nM in assay [2] (Homo sapiens, HCC1806, 4 h).
For the compound `Cc1ccc2c(-c3cccc(O)c3C)c(N)c(C(N)=O)nc2c1` (single isomer, unassigned) [Compound 49, (M)-3-Amino-4-(3-hydroxy-2-methylphenyl)-7-methylquinoline-2-carboxamide], the IC50 in assay [1] was in the range of 500 to 1000 nM; in assay [2] (4 hours) it was 1000 to 5000 nM.
The matching figures for `Cc1cc(O)c(C)c(-c2c(N)c(C(N)=O)nc3cccnc23)c1` [Compound 291]: 1000 to 5000 nM and no less than 5000 nM.
The matching figures for `NC(=O)c1nc2cccnc2c(-c2c(F)ccc3[nH]ncc23)c1N` (atropisomer, axis not shown) [Compound 245]: no less than 5000 nM and no less than 5000 nM.
Turning to `Cc1ccc(O)c(C)c1-c1c(N)c(C(N)=O)cc2nccnc12` [Compound 82, 7-Amino-8-(3-hydroxy-2,6-dimethylphenyl)quinoxaline-6-carboxamide], the IC50 in assay [1] is less than 50 nM; in assay [2] (Homo sapiens, HCC1806, 4 h), 50 to 500 nM.
For `CC1=C(c2c(N)c(C(N)=O)nc3cccnc23)CCC[C@H]1O` [Compound 309] the same measures were no less than 5000 nM and no less than 5000 nM.
Consider `Cc1c(O)cccc1-c1c(N)c(C(N)=O)cc2ncccc12` (atropisomer, axis not shown; (M)) [Compound 68, (M)-6-Amino-5-(3-hydroxy-2-methylphenyl)quinoline-7-carboxamide], for which the values for the IC50 in assay [1] and in assay [2] (4 hours) were 50 to 500 nM and 500 to 1000 nM, respectively.
In the case of `NC(=O)c1nc2cccnc2c(-c2cccc3[nH]cnc23)c1N` [Compound 181], the IC50 was no less than 5000 nM in assay [1] and no less than 5000 nM in assay [2] (Homo sapiens, HCC1806, 4 h).
`Cc1ccc2[nH]ncc2c1-c1c(N)c(C(N)=O)cc2ncccc12` [Compound 144]: the IC50 in assay [1] lay in the range of 50 to 500 nM; in assay [2] (Homo sapiens, HCC1806, 4 h) it was 1000 to 5000 nM.
As for `COc1ccnc2c(-c3cccc(O)c3C)c(N)c(C(N)=O)cc12` (atropisomer, axis not shown) [Compound 327], the IC50 in assay [1] and in assay [2] (4 hours) was less than 50 nM each time.
As to `Cc1ccc(O)c(C)c1-c1c(N)c(C(N)=O)nc2cccnc12` (single isomer, unassigned) [Compound 10, (M)-3-amino-4-(3-hydroxy-2,6-dimethylphenyl)-1,5-naphthyridine-2-carboxamide], the values for the IC50 in assay [1] and in assay [2] (4 hours) were 500 to 1000 nM and 1000 to 5000 nM, respectively.
Take `Cc1ccc(O)c(C)c1-c1c(N)c(C(N)=O)nc2ccc(Cl)cc12` (single isomer, unassigned) [Compound 53, (M)-3-Amino-6-chloro-4-(3-hydroxy-2,6-dimethylphenyl)quinoline-2-carboxamide]: the figures for the IC50 in assay [1] and in assay [2] (4 hours) were 50 to 500 nM and 1000 to 5000 nM, respectively.
As for `Cc1cc2c[nH]nc2cc1-c1c(N)c(C(N)=O)nc2cccnc12` [Compound 205], the IC50 in assay [1] is no less than 5000 nM; in assay [2] (Homo sapiens, HCC1806, 4 h), no less than 5000 nM.
As to `Cc1c(O)cc(Cl)cc1-c1c(N)c(C(N)=O)nc2cccnc12` (atropisomer, axis not shown) [Compound 289], the IC50 was 1000 to 5000 nM in assay [1] and no less than 5000 nM in assay [2] (4 hours).
Consider `Cc1ccc2[nH]ncc2c1-c1c(N)c(C(N)=O)cc2nccnc12` [Compound 77, 7-Amino-8-(5-methyl-1H-indazol-4-yl)quinoxaline-6-carboxamide], for which the half-inhibitory concentration (IC50) was in the range of 50 to 500 nM in assay [1] and 1000 to 5000 nM in assay [2] (Homo sapiens, HCC1806, 4 h).
The matching figures for `Cc1c(-c2c(N)c(C(N)=O)cc3nccnc23)ccc2[nH]cnc12` [Compound 252]: no less than 5000 nM and no less than 5000 nM.
The matching figures for `Cc1ccc(C#N)cc1-c1c(N)c(C(N)=O)nc2cccnc12` [Compound 254]: no less than 5000 nM and no less than 5000 nM.
The matching figures for `Cc1ccc2[nH]ncc2c1-c1cc(C(N)=O)nc2ccccc12` [Compound 15, 4-(5-Methyl-1H-indazol-4-yl)quinoline-2-carboxamide]: no less than 5000 nM and no less than 5000 nM.
In the case of `NC(=O)c1cc2nccnc2c(-c2cc(O)cnc2Cl)c1N` (atropisomer, axis not shown) [Compound 164], the IC50 in assay [1] and in assay [2] (4 hours) was no less than 5000 nM throughout.
On to `Cc1cc2nc(N)sc2cc1-c1c(N)c(C(N)=O)cc2nccnc12` [Compound 311], for which the IC50 is 1000 to 5000 nM in assay [1] and no less than 5000 nM in assay [2] (Homo sapiens, HCC1806, 4 h).
In the case of `Cc1ccc(O)c(C)c1-c1c(N)c(C(N)=O)nc2nccnc12` (single isomer, unassigned) [Compound 128, (M)-7-Amino-8-(3-hydroxy-2,6-dimethylphenyl)pyrido[2,3-b]pyrazine-6-carboxamide], the IC50 in assay [1] is 1000 to 5000 nM; in assay [2] (4 hours), no less than 5000 nM.
The matching figures for `Cc1c(O)cccc1-c1c(N)c(C(N)=O)cc2nc(C(F)(F)F)c(O)nc12` (atropisomer, axis not shown) [Compound 136]: no less than 5000 nM and no less than 5000 nM.
Regarding `Cc1ncc(O)c(C)c1-c1c(N)c(C(N)=O)nc2cccnc12` [Compound 256], the IC50 in assay [1] is 1000 to 5000 nM; in assay [2] (Homo sapiens, HCC1806, 4 h) it was no less than 5000 nM.
The matching figures for `NC(=O)c1nc2cccnc2c(-c2cncc3sccc23)c1N` [Compound 230]: 50 to 500 nM and 1000 to 5000 nM.
